The values below come from patent publication US8586307B2, “Methods for diagnosing epigenetic, transgenerational effects of environmental toxicants on mammalian germ-lines and treating associated diseases” (priority 2005, dated 2013).

A short description of data set [1]: General observations (body weight, litter size, serum testosterone, other tissues). The class given is in vivo, rat. How it is done:
In Vivo Procedures: Gestating outbred Sprague-Dawley and inbred Fisher mother rats from timed, pregnant colonies housed at the Washington State University Vivarium, were given intraperitoneal injections of vinclozolin (100 mg/kg/day) and methoxychlor (200 mg/kg/day) from embryonic day 8-15 (E8-E15, sperm positive vaginal smear date=E0) of gestation (F0 generation) as previously described. Gestating mothers administered vehicle, sesame oil or DMSO, served as controls. At least 6 lines (individual F0 injected females) were generated for controls and treated groups for these analyses. Male rats from control and treated groups were collected at P60-P180 for analyses. F1 treated males were bred to F1 treated females to generate the F2 treated generation and F2 treated males were bred to F2 treated females to generate the F3 generation and the F3 were bred in the same manner to generate the F4 generation. Rats for the control groups were bred in the same manner for all the generations. No inbreeding or sibling crosses were generated. The outcross group (VOC) were generated by breeding the F2 treated males with wild-type females (total of 6 litters) and reverse outcross group (RVOC) was generated by breeding F2 treated females with wild-type males (total of 3 litters). Control (n=4) and treated (n=4) male offspring from the F1 generation from Fisher strain rats were collected at P6 for DNA methylation analysis, see below. All procedures have been approved by the Washington State University Animal Care Committee. The number of animals used for replicates in the experiments (i.e. n value) are as follows for vinclozolin treatment: F1 (control 11, treated 12); F2 (control 19, treated 30); F3 (control 19, treated 26); F4 (control 10, treated 17); VOC (18); and RVOC (6). For methoxychlor treatment animal number was for F1 (control 6, treated 9) and F2 (control 16, treated 22).

The next data set deals with F1 generation testis. The note with it: cited from earlier work.

SMILES strings stand for the structures.

`COc1ccc(C(c2ccc(OC)cc2)C(Cl)(Cl)Cl)cc1` [methoxychlor]: in data set [1] (all the animals), the serum testosterone levels result is “normal”. Moreover, the “effect on total body weight” value in data set [1] (endocrine disruptor treatment, F1) was “no effect”. Also, the “gross abnormality in any other tissues examined” value in data set [1] (rat, in vivo) is recorded as “No gross abnormality”. Besides, the “adult F1 generation testis phenotype” value with F1 generation testis (gestating mother exposed E8-E15, 100 or 200 mg/kg i.p. daily) was “reduced spermatogenic capacity, increased spermatogenic cell apoptosis and decreased sperm number and motility”. Moreover, the “effect on the F1 generation testis” value in the data set on F1 generation testis (transient exposure E15-E20) was “no effect”.
